According to patent US6946447B2, “MDM2-specific antisense oligonucleotides” (Hybridon, Inc., priority 1997, dated 2005):
Like-named read-outs stand apart in the source and are kept apart here.

Legend:
[1] = system: MDM2; experiment: MDM2 protein level by immunoprecipitation/Western blot in oligonucleotide-treated cells; format: cell-based, human; settings: JAR cells, 18 h, Lipofectin 7 μg/ml, Western blot (FIG. 2A)
[2] = system: DNA synthesis; experiment: DNA synthesis by BrdU incorporation normalized to viable cells; format: cell-based; settings: cell lines that do not undergo significant apoptosis, 100 nM, 20 hr (FIG. 15)
[3] = system: p53; experiment: Nuclear p53 level by immunofluorescence staining with Pab1801; format: cell-based, human; settings: MCF-7 cells, 200 nM, 20 hr
[4] = mice bearing LS174T xenografts
[5] = system: LS174T cells; experiment: LS174T cell growth by trypan blue viability staining; format: cell-based, human; settings: 72 hr, Lipofectin
Description: (§1) Chemicals and Reagents. Cell culture media and phosphate-buffered saline (PBS) were obtained from Sigma Chemical Co. (St. Louis, Mo.). Fetal bovine serum (FBS), antibodies against p53 and p21, Lipofectin, trypsin, penicillin-streptomycin, and trypan blue stain were purchased from GIBCO-BRL (Grand Island, N.Y.). The anti-human-MDM2 monoclonal antibody (Chen L. et al., Proc Natl Acad Sci USA, 95: 195-200, 1998; Chen L. et al., Mol. Med. 5: 21-34, 1999) was kindly provided by J. Chen (Moffitt Cancer Center, Tampa, Fla.). Chemotherapeutic agents adriamycin and 5-fluorouracil (5-FU) were obtained from Sigma. […] The MDM2, p53 and p21 levels in cultured cells were analyzed by using the methods described previously (earlier (Chen L. et al., Proc Natl Acad Sci USA, 95: 195-200, 1998; Chen L. et al., Mol. Med. 5: 21-34, 1999; Wang H. et al., Int J. Oncol. 15: 653-660, 1999). In brief, cell lysate containing identical amounts of total protein were fractionated by SDS-PAGE and transferred to Bio-Rad Trans-Blot nitrocellulose membranes (Bio-Rad Laboratories, Hercules, Calif., USA). The nitrocellulose membrane was then incubated with blocking buffer (PBS containing 0.1% Tween 20 and 5% non-fat milk) for 1 hr at room temperature and washed with the washing buffer (PBS containing 0. […]

[6] = system: DLD-1 cells; experiment: DLD-1 cell growth by trypan blue viability staining; format: cell-based, human; settings: 72 hr, Lipofectin
Description: as §1

[7] = system: MDM2, p53 and p21 protein levels in LS174T cells; experiment: Western blot of MDM2, p53 and p21 in LS174T cells; format: cell-based, human; settings: 400 nM Oligo 24 hr
Description: (§2) Chemicals and Reagents. Cell culture media and phosphate-buffered saline (PBS) were obtained from Sigma Chemical Co. (St. Louis, Mo.). Fetal bovine serum (FBS), antibodies against p53 and p21, Lipofectin, trypsin, penicillin-streptomycin, and trypan blue stain were purchased from GIBCO-BRL (Grand Island, N.Y.). The anti-human-MDM2 monoclonal antibody (Chen L. et al., Proc Natl Acad Sci USA, 95: 195-200, 1998; Chen L. et al., Mol. Med. 5: 21-34, 1999) was kindly provided by J. Chen (Moffitt Cancer Center, Tampa, Fla.). Chemotherapeutic agents adriamycin and 5-fluorouracil (5-FU) were obtained from Sigma. Natural product topoisomerase I inhibitor 10-hydroxycamptothecin (HCPT) was obtained from the Midwest Co. (Beijing, China) with the purity of the drug being greater than 98% (Zhang R. et al., Cancer Chemother Pharm 41: 257-267, 1998). Cell Culture. The tumor cell lines, LS174T and DLD-1 were obtained from the American Type Culture Collection (Rockville, Md.) and cultured according to their instructions. LS 174T cells were cultured in MEM with 0.1 mM nonessential amino acids and Earle's balanced salt solution containing 10% FBS and DLD-1 cells in RPMI 1640 medium containing 10% FBS. All media included 1% penicillin/streptomycin. […] Cells were incubated with Oligos AS or ASM at various concentrations for 72 hr, in the presence of Lipofectin (7 μg/ml). […] Western Blot Analysis. The MDM2, p53 and p21 levels in cultured cells were analyzed by using the methods described previously (earlier (Chen L. et al., Proc Natl Acad Sci USA, 95: 195-200, 1998; Chen L. et al., Mol. Med. 5: 21-34, 1999; Wang H. et al., Int J. Oncol. 15: 653-660, 1999). In brief, cell lysate containing identical amounts of total protein were fractionated by SDS-PAGE and transferred to Bio-Rad Trans-Blot nitrocellulose membranes (Bio-Rad Laboratories, Hercules, Calif., USA). The nitrocellulose membrane was then incubated with blocking buffer (PBS containing 0.1% Tween 20 and 5% non-fat milk) for 1 hr at room temperature and washed with the washing buffer (PBS containing 0. 1% Tween 20) for 5 min twice. The membrane was incubated with primary (anti-MDM2, anti-p53, or anti-p21) antibody overnight at 4° C. or for 1 hr at room temperature with gentle shaking. The membrane was washed with the washing buffer for 15 min and then twice for 5 min, and then incubated with 1:5000 diluted goat anti-mouse IgG-horse radish peroxidase conjugated antibody (Bio-Rad, Hercules, Calif.) for 1 hr at room temperature. After washing as described above the protein of interest was detected by ECL reagents from Amersham (Arlington Height, Ill.). Results. LS174T Model. In vitro inhibition of MDM2 expression by Oligo AS was shown in a sequence-specific, increasing dose-dependent manner (FIG. 19). […] Control oligonucleotide, Oligo ASM had no effect on MDM2, p53 or p21 protein levels at 500 nM, the highest concentration tested in the study.
Following in vitro combination treatment of Oligos and chemotherapeutic agents HCPT, adriamycin, and 5-FU, the protein levels of MDM2, p53 and p21 were determined in LS174T cells. Cells were incubated with 400 nM Oligo in the presence of Lipofectin for 24 hr, followed by addition of various concentrations of chemotherapeutic agents and incubation for additional 24 hr.

[8] = system: human colon cancer DLD-1 xenografts; experiment: Tumor growth in nude mice bearing DLD-1 xenografts; format: in vivo
[9] = system: human colon cancer LS174T xenografts; experiment: Tumor growth in nude mice bearing LS174T xenografts
[10] = system: MDM2, p53 and p21 protein levels in LS174T cells; experiment: Western blot of MDM2, p53 and p21 in LS174T cells; format: cell-based, human; settings: up to 500 nM, 24 hr, Lipofectin
[11] = mice bearing DLD-1 xenografts
[12] = system: MDM2, p53 and p21 protein levels in DLD-1 cells; experiment: Western blot of MDM2, p53 and p21 in DLD-1 cells; format: cell-based, human
Description: as §2
Following in vitro combination treatment of Oligos and chemotherapeutic agents HCPT, adriamycin, and 5-FU, the protein levels of MDM2, p53 and p21 were determined in DLD-1 cells. Cells were incubated with 200 nM Oligo in the presence of Lipofectin for 24 hr, followed by addition of various concentrations of chemotherapeutic agents and incubation for an additional 24 hr.

[13] = day 3, oligo 20, HCPT 3, 5-FU 10 mg/kg/day
[14] = day 6, oligo 20, HCPT 3, 5-FU 10 mg/kg/day
[15] = day 9, oligo 20, HCPT 3, 5-FU 10 mg/kg/day
[16] = day 12, oligo 20, HCPT 3, 5-FU 10 mg/kg/day
[17] = day 15, oligo 20, HCPT 3, 5-FU 10 mg/kg/day

K: control oligonucleotide complementary to an ion channel, 5′-CAGAGCCTTCATCTTCCCAG-3′; SEQ ID NO:6 (chemistry not given here)
inhibition of MDM2 expression [1]: not observed
rate of DNA synthesis (BrdU incorporation) [2]: not observed
nuclear p53 staining [3]: did not induce p53

Oligo ASM: mismatched control of Oligo AS, 5′-UGTCACCCTTTTTCATUCAC-3′; SEQ ID NO:50 (chemistry not given here)
Survival Rates of Animals ([4]; day 3): 100%
Survival Rates of Animals ([4]; day 6): 100%
Survival Rates of Animals ([4]; day 9): 100%
Survival Rates of Animals ([4]; day 12): 100%
Survival Rates of Animals ([4]; day 15): 100%
Survival Rates of Animals ([4]; day 18): 100%
effect on tumor cell growth [5]: no significant effect
effect on tumor cell growth [6]: no significant effect
MDM2, p53 and p21 protein levels, oligo pre-treatment then 5-FU ([7]; then 5-FU 24 hr): minimal effect
MDM2, p53 and p21 protein levels, oligo pre-treatment then HCPT ([7]; then HCPT 24 hr): minimal effect
MDM2, p53 and p21 protein levels, oligo pre-treatment then adriamycin ([7]; then adriamycin 24 hr): minimal effect
effect of combination treatment on tumor growth [8]: no significant effect
effect on in vivo tumor growth ([8]; 20 mg/kg/day): minimal effect
Ratio (%) of % T:C with oligo to % T:C without oligo ([2]/[1] or [3]/[1]) ([8]; day 3): 82%
Growth ratio % T:C [8, 13]: 81.5%
Ratio (%) of % T:C with oligo to % T:C without oligo ([2]/[1] or [3]/[1]) ([8]; day 6): 88%
Growth ratio % T:C [8, 14]: 87.5%
Ratio (%) of % T:C with oligo to % T:C without oligo ([2]/[1] or [3]/[1]) ([8]; day 9): 70%
Growth ratio % T:C [8, 15]: 79.3%
Ratio (%) of % T:C with oligo to % T:C without oligo ([2]/[1] or [3]/[1]) ([8]; day 12): 66%
Growth ratio % T:C [8, 16]: 66.4%
Ratio (%) of % T:C with oligo to % T:C without oligo ([2]/[1] or [3]/[1]) ([8]; day 15): 79%
Growth ratio % T:C [8, 17]: 79.3%
Ratio (%) of % T:C with oligo to % T:C without oligo ([2]/[1] or [3]/[1]) ([8]; day 18): 81%
Growth ratio % T:C ([8]; day 18, oligo 20, HCPT 3, 5-FU 10 mg/kg/day): 81.0%
Ratio (%) of % T:C with oligo to % T:C without oligo ([2]/[1] or [3]/[1]) ([8]; day 21): 76%
Growth ratio % T:C ([8]; day 21 (end of experiment), oligo 20, HCPT 3, 5-FU 10 mg/kg/day): 76.0%
effect of combination treatment on tumor growth [9]: no significant effect
xenograft pathology (tumor histology) [9]: indistinguishable histologically
effect on in vivo tumor growth ([9]; daily ip dose 20 mg/kg): minimal effect
Ratio (%) of % T:C with oligo to % T:C without oligo ([2]/[1] or [3]/[1]) ([9]; day 3): 99%
Growth ratio % T:C (mean tumor mass of treated group vs saline control) [9, 13]: 98.6%
Ratio (%) of % T:C with oligo to % T:C without oligo ([2]/[1] or [3]/[1]) ([9]; day 6): 105%
Growth ratio % T:C (mean tumor mass of treated group vs saline control) [9, 14]: 104.9%
Ratio (%) of % T:C with oligo to % T:C without oligo ([2]/[1] or [3]/[1]) ([9]; day 9): 70%
Growth ratio % T:C (mean tumor mass of treated group vs saline control) [9, 15]: 69.7%
Ratio (%) of % T:C with oligo to % T:C without oligo ([2]/[1] or [3]/[1]) ([9]; day 12): 82%
Growth ratio % T:C (mean tumor mass of treated group vs saline control) [9, 16]: 81.5%
Ratio (%) of % T:C with oligo to % T:C without oligo ([2]/[1] or [3]/[1]) ([9]; day 15): 79%
Growth ratio % T:C (mean tumor mass of treated group vs saline control) [9, 17]: 79.4%
Ratio (%) of % T:C with oligo to % T:C without oligo ([2]/[1] or [3]/[1]) ([9]; day 18): 72%
Growth ratio % T:C (mean tumor mass of treated group vs saline control) ([9]; day 18 (end of experiment), oligo 20, HCPT 3, 5-FU 10 mg/kg/day): 73.3%
Ratio (%) of % T:C with oligo to % T:C without oligo ([2]/[1] or [3]/[1]) ([9]; day 18, listed as ASM): 73%
effect on MDM2, p53 and p21 protein levels [10]: no effect
Survival Rates of Animals ([11]; day 3): 100%
Survival Rates of Animals ([11]; day 6): 100%
Survival Rates of Animals ([11]; day 9): 100%
Survival Rates of Animals ([11]; day 12): 100%
Survival Rates of Animals ([11]; day 15): 100%
Survival Rates of Animals ([11]; day 18): 100%
Survival Rates of Animals ([11]; day 21): 66.7%
effect on MDM2, p53 or p21 protein levels [12]: no effect
MDM2, p53 and p21 protein levels, oligo pre-treatment then 5-FU ([12]; 200 nM Oligo 24 hr, then 5-FU 24 hr): minimal effect
MDM2 and p21 protein levels, oligo pre-treatment then HCPT ([12]; 200 nM Oligo 24 hr, then HCPT 24 hr): minimal effect
MDM2 and p21 protein levels, oligo pre-treatment then adriamycin ([12]; 200 nM Oligo 24 hr, then adriamycin 24 hr): minimal effect
